This passage reports IC50, Kd and 2-AG accumulation, % of vehicle control results from patent publication US8362000B2, “Azetidinyl diamides as monoacylglycerol lipase inhibitors” (Janssen Pharmaceutica NV, priority 2009, dated 2013).

SMILES strings stand for the structures. Positions count from the first letter of the chain named. Where two headings read alike, the source gives them in different places. Some results are limits rather than exact numbers.

The target of test [1] is T1, purified wild type MGL (wt-MGLL 6H-11-313) (Homo sapiens, UniProt Q99685).
T1 sequence (Q99685 1-303): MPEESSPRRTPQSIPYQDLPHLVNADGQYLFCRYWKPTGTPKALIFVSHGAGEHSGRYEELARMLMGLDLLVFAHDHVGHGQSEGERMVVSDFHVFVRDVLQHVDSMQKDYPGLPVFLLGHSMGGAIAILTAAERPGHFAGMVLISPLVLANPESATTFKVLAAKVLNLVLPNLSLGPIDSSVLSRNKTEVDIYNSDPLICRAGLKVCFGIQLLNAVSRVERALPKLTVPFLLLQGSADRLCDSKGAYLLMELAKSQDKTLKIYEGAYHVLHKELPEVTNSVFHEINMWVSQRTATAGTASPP

A further test addresses T2, mutant MGL (Homo sapiens, UniProt Q99685, L169S/L176S).
T2 sequence (Q99685 1-303 L169S/L176S): T1 sequence (Q99685 1-303) with L169S, L176S
Kind of test: MGL ThermoFluor assay - mutant. It is filed as binding. In general terms: In DSF a fluorescence change marks the thermal transition of the protein.

In the next test the target is T3, MGL (Rattus norvegicus, UniProt Q8R431).
T3 construct: one g rat brain was homogenized using a Polytron homogenizer; from tissue; host or cells: rat brain homogenate
T3 sequence (Q8R431 1-303): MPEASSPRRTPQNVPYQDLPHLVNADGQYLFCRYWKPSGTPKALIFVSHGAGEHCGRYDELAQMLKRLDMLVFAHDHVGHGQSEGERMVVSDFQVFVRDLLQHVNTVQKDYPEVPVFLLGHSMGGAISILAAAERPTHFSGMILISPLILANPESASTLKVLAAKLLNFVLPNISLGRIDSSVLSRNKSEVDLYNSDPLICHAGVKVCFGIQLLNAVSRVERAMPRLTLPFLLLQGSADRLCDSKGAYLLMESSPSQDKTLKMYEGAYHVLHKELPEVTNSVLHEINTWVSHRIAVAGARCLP
Kind of test: 2-AG accumulation assay in rat brain homogenate. The test is classed as biochemical. The conditions noted are these: rat brain homogenate, 2-AG accumulation as percent of vehicle; for 2-AG accumulation, % of vehicle control at 1 µM: compound 1 μM, read-out: Rat Brain 2AG % VehCntrl (%) @ 1 μM; for 2-AG accumulation, % of vehicle control at 0.1 µM: compound 0.1 μM, read-out: Rat Brain 2AG % VehCntrl (%) @ 0.1 μM.

Where [2] appears, read: ThermoFluor concentration-response, read-out: MGL mutant ThermoFluor Kd.
[3] abbreviates: ThermoFluor, compound concentration measured by qNMR, read-out: MGL mutant ThermoFluor qKd (μM) (using qNMR conc.).
[4] abbreviates: ThermoFluor, compound concentration measured by qNMR, read-out: MGL mutant ThermoFluor qKd (using qNMR conc.).
Where [5] appears, read: ThermoFluor thermal stability binding assay, read-out: MGL mutant ThermoFluor Kd.
The mark [6] stands for this setting: compound concentration measured by qNMR, read-out: MGL mutant ThermoFluor qKd (using qNMR conc.).

Broadly, the IC50 is the concentration needed to halve the response being measured. A low value points to inhibition by little substance. `O=C(c1ccc2c(ccn2-c2ccc(C(F)(F)F)cc2)c1)N1CC(N2CCN(C(=O)c3ccc[nH]3)CC2)C1` [Cpd 1339, 5-({3-[4-(1H-Pyrrol-2-ylcarbonyl)piperazin-1-yl]azetidin-1-yl}carbonyl)-1-[4-(trifluoromethyl)phenyl]-1H-indole]: the IC50 in test [1] is < 5 nM. The Kd on mutant MGL (setting [2]) came out at 0.013 µM. The 2-AG accumulation, % of vehicle control at 1 µM on MGL was determined as 574%.
For `O=C(c1ccc2c(ccn2-c2ccc(OC(F)(F)F)cc2)c1)N1CC(N2CCN(C(=O)c3cscn3)CC2)C1` [Cpd 1370], in test [1], the IC50 was < 5 nM. Further, the Kd at mutant MGL (setting [3]) came to 0.013 µM. Moreover, the 2-AG accumulation, % of vehicle control at 1 µM on MGL was 773%.
In the case of `O=C(c1ccc(N2CCCC2)cc1)N1CC(N2CCN(C(=O)c3nccs3)CC2)C1` [Cpd 669], the IC50 in test [1] is 15 nM. For the same compound, the Kd at mutant MGL (setting [2]) stood at 0.005 µM. At MGL, the 2-AG accumulation, % of vehicle control at 1 µM was 583%.
In turn, `O=C(c1nccs1)N1CCN(C2CN(C(=O)c3cc(-c4ccccc4)ccc3F)C2)CC1` [Cpd 1208] returned an IC50 in test [1] of 190 nM. Further, the Kd at mutant MGL (setting [2]) came out at 1 µM. Moreover, the 2-AG accumulation, % of vehicle control at 1 µM on MGL was determined as 212%.
Take `O=C(c1nccs1)N1CCN(C2CN(C(=O)c3ccc(-c4ccccc4)cc3Cl)C2)CC1` [Cpd 1323]: the IC50 in test [1] is < 5 nM. The Kd on mutant MGL (setting [2]) amounted to 0.004 µM. The 2-AG accumulation, % of vehicle control at 1 µM at MGL came to 297%.
`O=C(c1cc(-c2ccccc2)cc(C(F)(F)F)c1)N1CC(N2CCN(C(=O)c3cscn3)CC2)C1` [Cpd 1259] showed an IC50 in test [1] of 847 nM. Also, the Kd at mutant MGL (setting [2]) came to 0.667 µM. Moreover, on MGL, the 2-AG accumulation, % of vehicle control at 1 µM turned out to be 159%.
As to `CCCCCCCC/C=C\CCCCCCCC(=O)N1CC(N2CCN(C(=O)c3nccs3)CC2)C1` [Cpd 641], the IC50 in test [1] was < 5 nM. The results for the Kd on mutant MGL (setting [2]) and on mutant MGL (setting [4]) were 0.118 µM and 0.136 µM, respectively. Further, the 2-AG accumulation, % of vehicle control at 1 µM at MGL came to 397%.
In turn, `O=C(c1cscn1)N1CCN(C2CN(C(=O)c3ccc(-c4ccc(F)c(Cl)c4)cc3Cl)C2)CC1` [Cpd 265, 1-{1-[(3,3′-Dichloro-4′-fluorobiphenyl-4-yl)carbonyl]azetidin-3-yl}-4-(1,3-thiazol-4-ylcarbonyl)piperazine] showed an IC50 in test [1] of 19 nM. The Kd on mutant MGL (setting [5]) stood at 0.0198 µM. At MGL, the 2-AG accumulation, % of vehicle control at 0.1 µM turned out to be 126% and the 2-AG accumulation, % of vehicle control at 1 µM was 162%. Also, on MGL (compound 10 μM, read-out: Rat Brain 2AG % VehCntrl (%) @ 10 μM), the 2-AG accumulation, % of vehicle control at 10 µM turned out to be 643%.
In the case of `Cc1c(C(=O)N2CC(N3CCN(C(=O)c4nccs4)CC3)C2)sc2cc(F)ccc12` [Cpd 684], 31 nM corresponded to half-maximal inhibition in test [1] (IC50). Also, the Kd on mutant MGL (setting [5]) worked out at 0.004 µM. Also, on MGL, the 2-AG accumulation, % of vehicle control at 1 µM stood at 645%.
Consider `O=C(c1ccc[nH]1)N1CCN(C2CN(C(=O)c3nn(-c4ccc(Cl)cc4Cl)c4c3CCC/C4=C\c3ccc(Cl)cc3)C2)CC1` [Cpd 1019], for which, in test [1], the IC50 turned out to be 6 nM. Also, the Kd was determined as 0.166 µM at mutant MGL (setting [2]) and 0.132 µM at mutant MGL (setting [6]). In addition, at MGL, the 2-AG accumulation, % of vehicle control at 1 µM was 287%.
The compound `O=C(c1cscn1)N1CCN(C2CN(C(=O)c3sc4cc(-c5ccccc5)ccc4c3C(F)(F)F)C2)CC1` [Cpd 1098, 1-(1-{[6-Phenyl-3-(trifluoromethyl)-1-benzothiophen-2-yl]carbonyl}azetidin-3-yl)-4-(1,3-thiazol-4-ylcarbonyl)piperazine] returned an IC50 in test [1] of 12 nM. Further, the Kd at mutant MGL (setting [2]) is 0.031 µM. The 2-AG accumulation, % of vehicle control at 1 µM on MGL worked out at 296%.
`C/C(=C\c1ccc(Cl)cc1)c1c(C)c(C(=O)N2CC(N3CCN(C(=O)C(F)(F)F)CC3)C2)nn1-c1ccc(Cl)cc1Cl` [Cpd 1012] yielded an IC50 in test [1] of 13 nM. Besides, the Kd on mutant MGL (setting [6]) stood at 3.34 µM. For the same compound, the 2-AG accumulation, % of vehicle control at 1 µM on MGL stood at 173%.
`Cn1ccc2cc(C(=O)N3CC(N4CCN(C(=O)c5nccs5)CC4)C3)cc(-c3cccc(F)c3)c21` [Cpd 1066]: 7 nM corresponded to half-maximal inhibition in test [1] (IC50). The Kd at mutant MGL (setting [3]) was 0.031 µM. Besides, the 2-AG accumulation, % of vehicle control at 1 µM at MGL is 609%.
Turning to `O=C(c1ccccc1)N1CCc2cc(C(=O)N3CC(N4CCN(C(=O)c5nccs5)CC4)C3)ccc2C1` [Cpd 736], the IC50 in test [1] was found to be 273 nM. Also, the Kd on mutant MGL (setting [5]) was 0.067 µM. Further, at MGL, the 2-AG accumulation, % of vehicle control at 1 µM turned out to be 499%.
For the compound `Cc1cn(-c2cccc(F)c2)c2ccc(C(=O)N3CC(N4CCN(C(=O)c5nccs5)CC4)C3)cc12` [Cpd 1368], the IC50 in test [1] is < 5 nM. For the same compound, the Kd at mutant MGL (setting [3]) came to 0.001 µM. Besides, the 2-AG accumulation, % of vehicle control at 1 µM on MGL was determined as 859%.
`O=C(c1ccc(Oc2cccc(C(F)(F)F)c2)cc1)N1CC(N2CCN(C(=O)c3nccs3)CC2)C1` [Cpd 424, 1-(1,3-Thiazol-2-ylcarbonyl)-4-[1-({4-[3-(trifluoromethyl)phenoxy]phenyl}carbonyl)azetidin-3-yl]piperazine]: in test [1], the IC50 was < 5 nM. Also, the Kd at mutant MGL (setting [2]) was determined as 0.00941 µM. On MGL, the 2-AG accumulation, % of vehicle control at 1 µM came to 436%.
`COc1cc(-n2ccc3cc(C(=O)N4CC(N5CCN(C(=O)c6nccs6)CC5)C4)ccc32)ccn1` [Cpd 1107, 1-(2-Methoxypyridin-4-yl)-5-({3-[4-(1,3-thiazol-2-ylcarbonyl)piperazin-1-yl]azetidin-1-yl}carbonyl)-1H-indole] yielded an IC50 in test [1] of 14 nM. Besides, the Kd on mutant MGL (setting [4]) is 0.003 µM. Moreover, on MGL, the 2-AG accumulation, % of vehicle control at 1 µM came out at 838%.
The compound `O=C(c1cc(-c2ccc(F)cc2)cs1)N1CC(N2CCN(C(=O)c3nccs3)CC2)C1` [Cpd 1157] showed an IC50 in test [1] of 41 nM. For the same compound, at mutant MGL (setting [3]), the Kd was determined as 0.179 µM. For the same compound, the 2-AG accumulation, % of vehicle control at 1 µM at MGL is 252%.
`O=C(c1ccc2c(ccn2-c2ccc(C(F)(F)F)nc2)c1)N1CC(N2CCN(C(=O)c3ccc[nH]3)CC2)C1` [Cpd 1062, 5-({3-[4-(1H-Pyrrol-2-ylcarbonyl)piperazin-1-yl]azetidin-1-yl}carbonyl)-1-[6-(trifluoromethyl)pyridin-3-yl]-1H-indole] yielded an IC50 in test [1] of 7 nM. The Kd on mutant MGL (setting [4]) came out at 0.1 µM. Further, at MGL, the 2-AG accumulation, % of vehicle control at 1 µM is 451%.
For `O=C(c1ccc(Oc2cccc(C(F)(F)F)c2)nc1)N1CC(N2CCN(C(=O)c3nccs3)CC2)C1` [Cpd 660], in test [1], it took 10 nM to reach half-maximal inhibition (IC50). In addition, the Kd at mutant MGL (setting [2]) worked out at 0.065 µM. Further, the 2-AG accumulation, % of vehicle control at 1 µM on MGL is 410%.
Consider `O=C(c1ccc2c(c1)Sc1ccccc1O2)N1CC(N2CCN(C(=O)c3ccc[nH]3)CC2)C1` [Cpd 678, 1-[1-(Phenoxathiin-2-ylcarbonyl)azetidin-3-yl]-4-(1H-pyrrol-2-ylcarbonyl)piperazine], for which the IC50 in test [1] amounted to 22 nM. Moreover, the Kd on mutant MGL (setting [2]) came out at 0.031 µM. Moreover, the 2-AG accumulation, % of vehicle control at 1 µM on MGL amounted to 234%.
Take `O=C(c1ccc2c(ccn2-c2ccccn2)c1)N1CC(N2CCN(C(=O)c3nccs3)CC2)C1` [Cpd 1135, 1-Pyridin-2-yl-5-({3-[4-(1,3-thiazol-2-ylcarbonyl)piperazin-1-yl]azetidin-1-yl}carbonyl)-1H-indole]: the IC50 in test [1] came out at 25 nM. Moreover, the Kd at mutant MGL (setting [4]) was 0.015 µM. In addition, the 2-AG accumulation, % of vehicle control at 1 µM on MGL turned out to be 884%.
In the case of `O=C(c1nccs1)N1CCN(C2CN(C(=O)c3cccc4c3ccn4-c3ccc(F)cc3)C2)CC1` [Cpd 1320, 1-(4-Fluorophenyl)-4-({3-[4-(1,3-thiazol-2-ylcarbonyl)piperazin-1-yl]azetidin-1-yl}carbonyl)-1H-indole], the IC50 in test [1] was < 5 nM. Moreover, on mutant MGL (setting [3]), the Kd was determined as 0.015 µM. Further, the 2-AG accumulation, % of vehicle control at 1 µM on MGL was determined as 823%.
For the compound `O=C(c1ccccc1)c1ccc(C(=O)N2CC(N3CCN(C(=O)c4nccs4)CC3)C2)cc1` [Cpd 1017], in test [1], the midpoint of inhibition, the IC50, lay at 35 nM. In addition, on mutant MGL (setting [2]), the Kd is 0.049 µM. For the same compound, on MGL, the 2-AG accumulation, % of vehicle control at 1 µM was determined as 307%.
In test [1], `O=C(c1ccoc1)N1CCN(C2CN(C(=O)c3ccc(-c4ccccc4)cc3)C2)CC1` [Cpd 1140] came in with an IC50 of 27 nM. Moreover, the Kd on mutant MGL (setting [5]) amounted to 0.112 µM. The 2-AG accumulation, % of vehicle control at 1 µM on MGL came out at 200%.
Turning to `O=C(c1ccc(Oc2cccc(Cl)c2)c(F)c1)N1CC(N2CCN(C(=O)c3nccs3)CC2)C1` [Cpd 875], in test [1], the IC50 was < 5 nM. At mutant MGL (setting [2]), the Kd amounted to 0.01 µM. At MGL, the 2-AG accumulation, % of vehicle control at 0.1 µM worked out at 232% and the 2-AG accumulation, % of vehicle control at 1 µM was 499%.
